Entries after “also recorded” stand apart in the source; their conditions may differ.
What was measured:
[1] = tested on: SN12C-VHLshRNA-HIF-2α mutant xenograft tumors; experiment: Subcutaneous xenograft tumor growth, VHL knockdown cells with HIF-2α mutant; assay type: in vivo, SCID mice; details: 0.1 mg/kg CCI-779 daily
Method: (§1) FIGS. 4A-4C. Rescue of CCI-779 growth suppression by HIF-1-α and HIF-2-α prolyl hydcroxylase mutants. SN12C-CSCG-VHLshRNA cells stably infected with the prolyl hydroxylation defective cDNA mutants p-Babe-puro-HA-HIF-1α (P564A), HIF-2α (P405A; P531A) or backbone vector were treated with CCI-779 or vehicle and harvested 24 hours later. (a) Lysates were subjected to immunoblotting for HIF-1α, HIF-2α, GLUT-1, CA-IX, p-eIF4G, p-S6 and β-Actin as loading control. (b) SN12C-VHLshRNA, SN12C-VHLshRNA-HIF-1α mutant, SN12C-VHLshRNA-HIF-2α mutant cells (1×10^5) were cultured in 10% serum rich media, in the presence of vehicle, 1 or 10 nM of CCI-779 for 5 days. Cell growth was measured by cell counts (n=3). […]
(§2) For in vitro experiments, cells (5×10^4) were plated and treated with 1 and 10 nM CCI-779 (kind gift of J. Gibbons, Wyeth) or vehicle (ethanol). On day 5-post treatment, cells were trypsinized, resuspended in DMEM with 10% FBS and counted using the VI CELL counter (Beckman Coulter), according to the manufacturer's instructions. […] In vivo tumorigenicity was measured by injection of 5×10^5 SN12C-CSCG, ACHN-CSCG, SN12C-CSCG-VHLshRNAi, ACHN-CSCG-VHLshRNAi, SN12C-CSCG-VHLshRNAi-pBABE, SN12C-CSCG-VHLshRNAi-pBABE-HA-HIF-2α (P405A; P531A) cells in 100 μl of Matrigel (Collaborative Biomedical) subcutaneously into the flanks of SCID mice. […]

[2] = tested on: SN12C-VHLshRNA-HIF-1α mutant and SN12C-VHLshRNA-HIF-2α mutant cells; experiment: In vitro growth of VHL knockdown cells expressing prolyl hydroxylation defective HIF mutants; assay type: cell-based, human; details: 1 or 10 nM CCI-779, 5 days
Method: as §1, §2

CO[C@H]1C[C@@H]2CC[C@@H](C)[C@@](O)(O2)C(=O)C(=O)N2CCCC[C@H]2C(=O)O[C@H]([C@H](C)C[C@@H]2CC[C@@H](OC(=O)C(C)(CO)CO)[C@H](OC)C2)CC(=O)[C@H](C)/C=C(\C)[C@@H](O)[C@@H](OC)C(=O)[C@H](C)C[C@H](C)/C=C/C=C/C=C/1C [CCI-779]
growth inhibitory effect of CCI-779 in HIF mutant xenografts [1]: completely rescued; also recorded: reversal of both the in vitro and in vivo sensitivity | growth inhibitory effect of CCI-779 in cells expressing HIF mutants, in vitro [2]: completely rescued; also recorded: reversal of both the in vitro and in vivo sensitivity

Reference: patent US9261498B2, “Biomarker for sensitivity to mTOR inhibitor therapy in kidney cancer” (The Regents of the University of California, priority 2005, dated 2016)
